Measurements: patent US20240228459A1 (Boundless Bio, Inc., priority 2022, published 2024)

Tests used:
[1] = target: PLK1 (Homo sapiens, UniProt P53350); test: PLK1 activity (known assay); type: biochemical
Experimental: (§1) The Wee1 pCDK1 and PLK1 activities were determined using known assays.

[2] = target: Wee1 (Homo sapiens, UniProt P30291); test: Wee1 pCDK1 activity (known assay); type: cell-based
Experimental: as §1

Chain of PLK1 (P53350 whole entry, species assumed): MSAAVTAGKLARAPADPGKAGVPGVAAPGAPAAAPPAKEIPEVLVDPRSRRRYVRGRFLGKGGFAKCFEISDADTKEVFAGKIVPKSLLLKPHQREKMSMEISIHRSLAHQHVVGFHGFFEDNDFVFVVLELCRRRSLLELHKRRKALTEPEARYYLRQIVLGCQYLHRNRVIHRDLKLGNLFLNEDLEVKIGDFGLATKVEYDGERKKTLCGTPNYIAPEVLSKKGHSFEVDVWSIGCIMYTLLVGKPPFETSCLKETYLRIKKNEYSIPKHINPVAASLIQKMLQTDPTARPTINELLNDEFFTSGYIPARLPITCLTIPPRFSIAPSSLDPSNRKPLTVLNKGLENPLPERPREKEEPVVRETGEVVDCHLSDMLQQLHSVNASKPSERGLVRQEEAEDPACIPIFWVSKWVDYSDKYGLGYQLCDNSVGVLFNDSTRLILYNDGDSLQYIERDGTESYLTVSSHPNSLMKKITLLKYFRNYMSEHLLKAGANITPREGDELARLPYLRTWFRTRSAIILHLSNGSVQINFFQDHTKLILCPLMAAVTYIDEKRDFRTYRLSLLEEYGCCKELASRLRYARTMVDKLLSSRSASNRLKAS
Chain of Wee1 (P30291 whole entry, species assumed): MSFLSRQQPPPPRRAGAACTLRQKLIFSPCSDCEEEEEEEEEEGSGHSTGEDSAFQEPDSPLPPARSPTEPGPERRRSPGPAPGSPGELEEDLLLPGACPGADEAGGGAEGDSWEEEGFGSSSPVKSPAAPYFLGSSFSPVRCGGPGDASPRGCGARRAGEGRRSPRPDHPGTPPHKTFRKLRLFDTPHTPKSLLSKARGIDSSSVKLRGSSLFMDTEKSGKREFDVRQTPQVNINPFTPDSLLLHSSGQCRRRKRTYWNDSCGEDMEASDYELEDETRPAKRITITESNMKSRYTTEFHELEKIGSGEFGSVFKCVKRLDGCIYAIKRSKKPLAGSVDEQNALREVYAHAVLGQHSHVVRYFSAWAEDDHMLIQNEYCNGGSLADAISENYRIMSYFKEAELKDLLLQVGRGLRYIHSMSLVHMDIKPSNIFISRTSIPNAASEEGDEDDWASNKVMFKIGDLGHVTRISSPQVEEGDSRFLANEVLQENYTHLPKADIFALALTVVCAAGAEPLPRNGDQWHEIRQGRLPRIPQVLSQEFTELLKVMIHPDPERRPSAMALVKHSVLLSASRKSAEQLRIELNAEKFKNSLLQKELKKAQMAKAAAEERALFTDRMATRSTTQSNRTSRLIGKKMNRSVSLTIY

| SMILES | IC50 [1] [nM] | IC50 [2] [nM] |
| --- | --- | --- |
| C[C@@H]1CN(C)CCN1c1ccc(Nc2ncc(C#N)c(Nc3cccc(N4CCOC4=O)n3)n2)cc1 (racemic) [Example 10, 4-[[6-(2-oxooxazolidin-3-yl)-2-pyridyl]amino]-2-[4-[rac-(2R)-2,4-dimethylpiperazin-1-yl]anilino]pyrimidine-5-carbonitrile] | > 1000 | 100 to 250 |
| CCC1(O)CCc2ccc(Nc3nc(Nc4ccc(N5C[C@@H](C)N[C@@H](C)C5)cc4)ncc3C#N)nc21 (mixture of isomers) [Example 32, 4-[(7-ethyl-7-hydroxy-5,6-dihydrocyclopenta[b]pyridin-2-yl)amino]-2-[4-[rac-(3R,5S)-3,5-dimethylpiperazin-1-yl]anilino]pyrimidine-5-carbonitrile] | ≤ 100 | 100 to 250 |
| CCC1(O)CCc2ccc(Nc3nc(Nc4ccc(N5C[C@@H](C)N(C)[C@@H](C)C5)cc4)ncc3C#N)nc21 (mixture of isomers) [Example 53, 4-[(7-ethyl-7-hydroxy-5,6-dihydrocyclopenta[b]pyridin-2-yl)amino]-2-[4-[rac-(3R,5S)-3,4,5-trimethylpiperazin-1-yl]anilino]pyrimidine-5-carbonitrile] | ≤ 100 | 100 to 250 |
| C[C@H]1CN(C)CCN1c1ccc(Nc2ncc(C#N)c(Nc3ccc4c(n3)C(C)(O)CC4)n2)cc1 (mixture of isomers) [Example 60, 4-[(7-hydroxy-7-methyl-5,6-dihydrocyclopenta[b]pyridin-2-yl)amino]-2-[4-[rac-(2S)-2,4-dimethylpiperazin-1-yl]anilino]pyrimidine-5-carbonitrile] | 500 to 1000 | 500 to 1000 |
| CCC1(O)CCc2ccc(Nc3nc(Nc4ccc(C5CCN(C)CC5)c(C)c4)ncc3C#N)nc21 (single isomer, unassigned) [Example 21] | ≤ 100 | ≤ 100 |
| CCC1(O)CCc2ccc(Nc3nc(Nc4ccc(C5CCN(C)CC5)c(C)c4)ncc3C#N)nc21 (single isomer, unassigned) [Example 22] | 100 to 250 | 250 to 500 |
| CCC1(O)CCc2ccc(Nc3nc(Nc4ccc5c(c4)CCN(C)C5(C)C)ncc3C#N)nc21 (single isomer, unassigned) [Example 27] | > 1000 | ≤ 100 |
| CCC1(O)CCc2ccc(Nc3nc(Nc4ccc5c(c4)CCN(C)C5(C)C)ncc3C#N)nc21 (single isomer, unassigned) [Example 28] | > 1000 | 250 to 500 |
| CCC1(O)CCc2ccc(Nc3nc(Nc4ccc(N5C6CCC5CN(C)C6)cc4)ncc3C#N)nc21 (single isomer, unassigned) [Example 37] | > 1000 | > 1000 |
| CCC1(O)CCc2ccc(Nc3nc(Nc4ccc(N5C6CCC5CN(C)C6)cc4)ncc3C#N)nc21 (single isomer, unassigned) [Example 38] | 250 to 500 | 250 to 500 |
| CCC1(O)CCCc2ccc(Nc3nc(Nc4ccc(N5CCN(C)CC5)cc4)ncc3C#N)nc21 (stereo not shown) [Example 1, 4-[(8-ethyl-8-hydroxy-6,7-dihydro-5H-quinolin-2-yl)amino]-2-[4-(4-methylpiperazin-1-yl)anilino]pyrimidine-5-carbonitrile] | ≤ 100 | 100 to 250 |
| CCCC1(O)CCc2ccc(Nc3nc(Nc4ccc(N5CCN(C)CC5)cc4)ncc3C#N)nc21 (stereo not shown) [Example 2, 4-[(7-hydroxy-7-propyl-5,6-dihydrocyclopenta[b]pyridin-2-yl)amino]-2-[4-(4-methylpiperazin-1-yl)anilino]pyrimidine-5-carbonitrile] | ≤ 100 | ≤ 100 |
| CN1CCN(c2ccc(Nc3ncc(C#N)c(Nc4cccc(-n5ccccc5=O)n4)n3)cc2)CC1 [Example 3, 2-[4-(4-methylpiperazin-1-yl)anilino]-4-[[6-(2-oxo-1-pyridyl)-2-pyridyl]amino]pyrimidine-5-carbonitrile] | – | 500 to 1000 |
| COC1(C)CCc2ccc(Nc3nc(Nc4ccc(N5CCN(C)CC5)cc4)ncc3C#N)nc21 (stereo not shown) [Example 4, 4-[(7-methoxy-7-methyl-5,6-dihydrocyclopenta[b]pyridin-2-yl)amino]-2-[4-(4-methylpiperazin-1-yl)anilino]pyrimidine-5-carbonitrile] | ≤ 100 | 250 to 500 |
| CN1CCN(c2ccc(Nc3ncc(C#N)c(Nc4cccc(N5CCCC5=O)n4)n3)cc2)CC1 [Example 5, 2-[4-(4-methylpiperazin-1-yl)anilino]-4-[[6-(2-oxopyrrolidin-1-yl)-2-pyridyl]amino]pyrimidine-5-carbonitrile] | 250 to 500 | 100 to 250 |
| CCN1CCCc2ccc(Nc3nc(Nc4ccc(N5CCN(C)CC5)cc4)ncc3C#N)nc21 [Example 6, 4-[(8-ethyl-6,7-dihydro-5H-1,8-naphthyridin-2-yl)amino]-2-[4-(4-methylpiperazin-1-yl)anilino]pyrimidine-5-carbonitrile] | – | 500 to 1000 |

| SMILES | IC50 [1] [nM] | IC50 [2] [nM] |
| --- | --- | --- |
| CN1CCN(c2ccc(Nc3ncc(C#N)c(Nc4cccc(N5CCCC5)n4)n3)cc2)CC1 [Example 7, 2-[4-(4-methylpiperazin-1-yl)anilino]-4-[(6-pyrrolidin-1-yl-2-pyridyl)amino]pyrimidine-5-carbonitrile] | ≤ 100 | 100 to 250 |
| CN1CCN(c2ccc(Nc3ncc(C#N)c(Nc4ccc5c(n4)C(C)(O)CC5)n3)cc2)CC1 (stereo not shown) [Example 8, 4-[(7-hydroxy-7-methyl-5,6-dihydrocyclopenta[b]pyridin-2-yl)amino]-2-[4-(4-methylpiperazin-1-yl)anilino]pyrimidine-5-carbonitrile] | ≤ 100 | 100 to 250 |
| C[C@H]1CN(C)CCN1c1ccc(Nc2ncc(C#N)c(Nc3cccc(N4CCOC4=O)n3)n2)cc1 [Example 9, 4-[[6-(2-oxooxazolidin-3-yl)-2-pyridyl]amino]-2-[4-[(2S)-2,4-dimethylpiperazin-1-yl]anilino]pyrimidine-5-carbonitrile] | > 1000 | 100 to 250 |
| Cc1cc(Nc2ncc(C#N)c(Nc3cccc(N4CCOC4=O)n3)n2)ccc1C1CCN(C)CC1 [Example 11, 2-[3-methyl-4-(1-methyl-4-piperidyl)anilino]-4-[[6-(2-oxooxazolidin-3-yl)-2-pyridyl]amino]pyrimidine-5-carbonitrile] | – | 100 to 250 |
| CN1CCc2cc(Nc3ncc(C#N)c(Nc4cccc(N5CCOC5=O)n4)n3)ccc2C1 [Example 12, 2-[(2-methyl-3,4-dihydro-1H-isoquinolin-6-yl)amino]-4-[[6-(2-oxooxazolidin-3-yl)-2-pyridyl]amino]pyrimidine-5-carbonitrile] | > 1000 | ≤ 100 |
| CN1CCc2cc(Nc3ncc(C#N)c(Nc4cccc(N5CCOC5=O)n4)n3)cc(Cl)c2C1 [Example 13, 2-[(8-chloro-2-methyl-3,4-dihydro-1H-isoquinolin-6-yl)amino]-4-[[6-(2-oxooxazolidin-3-yl)-2-pyridyl]amino]pyrimidine-5-carbonitrile] | > 1000 | ≤ 100 |
| CCC1(O)CCc2ccc(Nc3nc(Nc4ccc(N5CCN(C)CC5)nc4)ncc3C#N)nc21 (stereo not shown) [Example 14, 4-[(7-ethyl-7-hydroxy-5,6-dihydrocyclopenta[b]pyridin-2-yl)amino]-2-[[6-(4-methylpiperazin-1-yl)-3-pyridyl]amino]pyrimidine-5-carbonitrile] | ≤ 100 | > 1000 |
| CCC1(O)CCc2ccc(Nc3nc(Nc4ccc(N5CCN(C)CC5)cc4)ncc3C#N)nc21 (stereo not shown) [Example 15, 4-[(7-ethyl-7-hydroxy-5,6-dihydrocyclopenta[b]pyridin-2-yl)amino]-2-[4-(4-methylpiperazin-1-yl)anilino]pyrimidine-5-carbonitrile] | ≤ 100 | 250 to 500 |
| CCC1(O)CCc2ccc(Nc3nc(Nc4ccc(N5CCN(C)CC5)c(C)c4)ncc3C#N)nc21 (stereo not shown) [Example 16, 4-[(7-ethyl-7-hydroxy-5,6-dihydrocyclopenta[b]pyridin-2-yl)amino]-2-[3-methyl-4-(4-methylpiperazin-1-yl)anilino]pyrimidine-5-carbonitrile] | ≤ 100 | 100 to 250 |
| CCC1(O)CCc2ccc(Nc3nc(Nc4ccc(N5CCNCC5)c(C)c4)ncc3C#N)nc21 (stereo not shown) [Example 17, 4-[(7-ethyl-7-hydroxy-5,6-dihydrocyclopenta[b]pyridin-2-yl)amino]-2-(3-methyl-4-piperazin-1-yl-anilino)pyrimidine-5-carbonitrile] | ≤ 100 | ≤ 100 |
| CCC1(O)CCc2ccc(Nc3nc(Nc4ccc(C5CCNCC5)c(C)c4)ncc3C#N)nc21 (stereo not shown) [Example 18, 4-[(7-ethyl-7-hydroxy-5,6-dihydrocyclopenta[b]pyridin-2-yl)amino]-2-[3-methyl-4-(4-piperidyl)anilino]pyrimidine-5-carbonitrile] | ≤ 100 | 250 to 500 |
| CCC1(O)CCc2ccc(Nc3nc(Nc4ccc(C5CCN(CCO)CC5)c(C)c4)ncc3C#N)nc21 (stereo not shown) [Example 19, 4-[(7-ethyl-7-hydroxy-5,6-dihydrocyclopenta[b]pyridin-2-yl)amino]-2-[4-[1-(2-hydroxyethyl)-4-piperidyl]-3-methyl-anilino]pyrimidine-5-carbonitrile] | ≤ 100 | 250 to 500 |
| CCC1(O)CCc2ccc(Nc3nc(Nc4ccc(C5CCN(C)CC5)c(C)c4)ncc3C#N)nc21 (stereo not shown) [Example 20, 4-[(7-ethyl-7-hydroxy-5,6-dihydrocyclopenta[b]pyridin-2-yl)amino]-2-[3-methyl-4-(1-methyl-4-piperidyl)anilino]pyrimidine-5-carbonitrile] | 100 to 250 | ≤ 100 |
| CCC1(O)CCc2ccc(Nc3nc(Nc4ccc(N5CCN(C6CC6)CC5)cc4)ncc3C#N)nc21 (stereo not shown) [Example 23, 2-[4-(4-cyclopropylpiperazin-1-yl)anilino]-4-[(7-ethyl-7-hydroxy-5,6-dihydrocyclopenta[b]pyridin-2-yl)amino]pyrimidine-5-carbonitrile] | ≤ 100 | 500 to 1000 |
| Cc1cc(Nc2ncc(C#N)c(Nc3cccc(N4CCCC4=O)n3)n2)cc2c1CNCC2 [Example 77, 2-[(8-methyl-1,2,3,4-tetrahydroisoquinolin-6-yl)amino]-4-[[6-(2-oxopyrrolidin-1-yl)-2-pyridyl]amino]pyrimidine-5-carbonitrile] | – | 500 to 1000 |
